Reference: CN116139126A, “表没食子儿茶素-3-没食子酸酯在制备嗜水气单胞菌的群体感应抑制剂中的应用” (Yueyang Yumeikang Bio Tech Co ltd, priority 2023, dated 2023)
Converted amounts (≈) assume the structure as drawn. “Also recorded” adds a separate entry of the source. Like-named read-outs stand apart in the source and are kept apart here.

What was measured:
[1] = system: Aeromonas hydrophila (嗜水气单胞菌); experiment: MIC/MBC by twofold dilution in TSB; type: cell-based, Aeromonas hydrophila AH08; details: 30 °C, 24 h; for MIC: TSB
[2] = system: Aeromonas hydrophila (嗜水气单胞菌); experiment: Growth curve of A. hydrophila; type: cell-based, Aeromonas hydrophila AH08
[3] = system: Aeromonas hydrophila biofilm (嗜水气单胞菌生物膜); experiment: Biofilm inhibition test (crystal violet); type: cell-based, Aeromonas hydrophila AH08; details: for inhibition at 128 µg/mL: Aeromonas hydrophila, 128 μg/ml, 30 °C, read-out: inhibition rate of biofilm
[4] = system: AI-2 of Aeromonas hydrophila (AI-2); experiment: AI-2 bioluminescence assay with V. harveyi BB170 reporter; type: cell-based, Aeromonas hydrophila AH08; details: compared with control (no EGCG); 16-256 μg/mL
[5] = system: virulence factor and QS genes of Aeromonas hydrophila (嗜水气单胞菌毒力因子及QS基因); experiment: qRT-PCR of quorum sensing and virulence genes; type: cell-based, Aeromonas hydrophila AH08; details: normalised to rpob
[6] = system: Aeromonas hydrophila (嗜水气单胞菌); experiment: Protection of zebrafish infected with A. hydrophila (survival); type: in vivo, Aeromonas hydrophila AH08; zebrafish; details: for time of death of the first zebrafish: injected after intraperitoneal infection; for survival rate: model group 0
[7] = system: Aeromonas hydrophila (嗜水气单胞菌); type: in vivo, Aeromonas hydrophila AH08; zebrafish; details: for reduction of bacterial adhesion CFU: compared with model group
[8] = system: Aeromonas hydrophila (嗜水气单胞菌); experiment: Histopathology of infected zebrafish (gill, muscle, liver; H&E); type: in vivo, Aeromonas hydrophila AH08; zebrafish
[9] = system: Aeromonas hydrophila (嗜水气单胞菌); details: swarming and swimming, 64-256 μg/mL
[10] = system: Aeromonas hydrophila (嗜水气单胞菌); experiment: microbe, parasite or virus in culture; details: 18 h
[11] = system: pro-inflammatory cytokine genes IL-1β, IL-8, IL-6, TNF-α (促炎细胞因子基因); experiment: Pro-inflammatory cytokine gene expression in zebrafish intestine (qRT-PCR); details: 6 h after infection
[12] = read-out: inhibition rate of swarming
[13] = read-out: inhibition rate of swimming

SMILES: O=C(O[C@@H]1Cc2c(O)cc(O)cc2O[C@@H]1c1cc(O)c(O)c(O)c1)c1cc(O)c(O)c(O)c1 [EGCG, 表没食子儿茶素-3-没食子酸酯]
- MBC ([1]; Aeromonas hydrophila, TSB agar): 4100 µg/mL (≈ 8940 µM)
- MIC ([1]; Aeromonas hydrophila, read-out: MIC): 1020 µg/mL (≈ 2230 µM)
- MIC [1]: 1024 µg/mL (≈ 2230 µM)
- inhibition of growth after 12 h (growth curve) ([2]; 0-256 μg/mL, 30 °C, after 12 h): 没有明显的抑制作用
- effect on lag phase (growth curve) ([2]; 0-256 μg/mL, 30 °C, od600nm): 增加了细菌的滞后期; also recorded: 延缓了嗜水气单胞菌进入对数生长期的时间
- bactericidal effect ([2]; 64-256 μg/ml, compared with control without EGCG): 不直接产生杀菌作用
- effect on growth after 24 h ([2]; sub-MIC, after 24 h): 没有明显影响
- inhibition of biofilm formation (in words) ([3]; 16-256 μg/mL): 显著抑制
- concentration dependence of biofilm inhibition ([3]; 24 h): 呈浓度依赖性
- inhibition at 128 µg/mL ([3]; 24 h): 38.3%
- inhibition at 128 µg/mL ([3]; 48 h): 26.6%
- AI-2 secreted by A. hydrophila [4]: 明显减少,并呈浓度依赖性
- expression of LuxR ([5]; AI-1 related gene): 不影响
- expression of ahyI ([5]; AI-1 related gene): 显著抑制
- expression of ahyR ([5]; AI-1 related gene): 显著抑制
- expression of LuxS ([5]; AI-2 synthase): 显著抑制
- expression of QseB ([5]; AI-3 related gene): 显著抑制
- expression of ahyB ([5]; elastase gene): 显著下调
- expression of flgL ([5]; flagellar gene): 显著下调
- expression of ahh1 ([5]; hemolysin gene): 显著下调
- expression of hly ([5]; hemolysin gene): 显著下调
- time of death of the first zebrafish ([6]; 50 mg/kg): 18 h
- time of death of the first zebrafish ([6]; 100 mg/kg): 48 h
- survival rate ([6]; high dose group (100 mg/kg), 48 h after infection): 88.9%
- survival rate (in words) ([6]; low dose group (10 mg/kg), 48 h after infection, compared with model group): 与模型组的生存率相同
- survival rate ([6]; medium dose group (50 mg/kg), 48 h after infection): 88.9%
- reduction of bacterial adhesion CFU ([7]; 10 mg/kg): 21.22%
- reduction of bacterial adhesion CFU ([7]; 50 mg/kg): 33.47%
- reduction of bacterial adhesion CFU ([7]; 100 mg/kg): 38.00%
- adhesion of A. hydrophila to zebrafish (in words) ([7]; after EGCG treatment): 显著降低
- bacterial load of zebrafish (in words) ([7]; after EGCG treatment): 显著降低
- protection of tissues of infected zebrafish ([8]; dose-dependent): 显著的保护作用
- pathological damage caused by A. hydrophila ([8]; liver, muscle and gill of infected zebrafish): 明显改善
- inflammatory cell infiltration ([8]; zebrafish liver, muscle and gill): 显著减少
- inhibition of motility (in words) [9]: 显著抑制嗜水气单胞菌的运动性,且呈浓度依赖性
- inhibition at 128 µg/mL [10, 12]: 29.7%
- inhibition at 256 µg/mL [10, 12]: 33%
- inhibition at 64 µg/mL [10, 13]: 16%
- inhibition at 128 µg/mL [10, 13]: 28.3%
- inhibition at 256 µg/mL [10, 13]: 66%
- expression of IL-1β [11]: 显著抑制
- expression of IL-6 [11]: 显著抑制
- expression of IL-8 [11]: 显著抑制
- expression of TNF-α [11]: 显著抑制
